Results: patent US7256286B2, “Bryostatin analogues, synthetic methods and uses” (The Board of Trustees of the Leland Stanford Junior …, priority 1999, dated 2007)

How the values were obtained:
P388 cell line = assay: P388 murine lymphocytic leukemia cell assay; format: cell-based
Description: Cells from a P388 cell line (CellGate, Inc., Sunnyvale, Calif.) are grown in RPMI 1640 cell medium containing fetal calf serum (10%), L-glutamine, penicillin, streptomycin and are split twice weekly. All compounds are first diluted with DMSO. Later serial dilutions are done with a phosphate buffer solution (HYQ DPBS modified phosphate buffered saline). All dilutions are done in glass vials and the final DMSO concentration is always below 0.5% by volume. Final two-fold dilutions are done in a 96 well plate using cell media so that each well contains 50 μL. All compounds are assayed in quadruplicate over 12 concentrations. Cell concentration is measured using a hemacytometer and the final cell concentration is adjusted to 1×10^4 cells/mL with cell medium. The resulting solution of cells (50 μL) is then added to each well and the plates are incubated for 5 days in a 37° C., 5% CO2, humidified incubator (Sanyo CO2 incubator). MTT solution (3-[4,5-dimethylthiazol-2-yl]-2,5-diphenyltetrazolium bromide, 10 μL) is then added to each well and the plates are re-incubated under identical conditions for 2 h. To each well is then added acidified isopropanol (150 μL of i-PrOH solution containing 0.05 N HCl) and mixed thoroughly. The plates are then scanned at 595 nm and the absorbances are read (Wallac Victor 1420 Multilabel Counter). The resulting data is then analyzed to determine an ED50 value using the Prism software package (GraphPad).

HCC-2998 = assay: NCI human cancer cell line growth inhibition: HCC-2998; format: cell-based; settings: HCC-2998, Colon
A498 = assay: NCI human cancer cell line growth inhibition: A498; format: cell-based; settings: A498, Renal
HT29 = assay: NCI human cancer cell line growth inhibition: HT29; format: cell-based; settings: HT29, Colon
HOP-62 = assay: NCI human cancer cell line growth inhibition: HOP-62; format: cell-based; settings: Homo sapiens; HOP-62, NSC Lung
UO-31 = assay: NCI human cancer cell line growth inhibition: UO-31; format: cell-based; settings: UO-31, Renal
SNB-75 = assay: NCI human cancer cell line growth inhibition: SNB-75; format: cell-based; settings: SNB-75, CNS
SF-268 = assay: NCI human cancer cell line growth inhibition: SF-268; format: cell-based; settings: SF-268, CNS
786-0 = assay: NCI human cancer cell line growth inhibition: 786-0; format: cell-based; settings: 786-0, Renal
PC-3 = assay: NCI human cancer cell line growth inhibition: PC-3; format: cell-based; settings: PC-3, Prostate
T-47D = assay: NCI human cancer cell line growth inhibition: T-47D; format: cell-based; settings: Breast
SK-MEL-5 = assay: NCI human cancer cell line growth inhibition: SK-MEL-5; format: cell-based; settings: SK-MEL-5, Melanoma
MDA-MB-435 = assay: NCI human cancer cell line growth inhibition: MDA-MB-435; format: cell-based
PKCδ-C1B = biological target: T1, PKCδ-C1B (Mus musculus, UniProt P28867); assay: PKCδ-C1B assay; format: binding
T1 construct: made in house
T1 sequence (P28867 231-281 limits assumed): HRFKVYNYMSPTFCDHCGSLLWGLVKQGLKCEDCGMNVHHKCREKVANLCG
Description: Phosphatidyl serine vesicles are prepared by the addition of phosphatidyl serine (10 mg/mL in chloroform, 0.4 mL) to a glass test tube followed by removal of the chloroform under a stream of nitrogen (5 min). […] The resulting solution is stored over ice. […] Stock solutions of compounds are diluted with absolute ethanol in glass in serial fashion. […] The tubes are incubated at 37° C. for 90 min. and then put on ice for 5 min. Each tube is then filtered separately through a pre-soaked filter disc. […] The filter is subsequently rinsed with cold 20 mM TRIS buffer (5 mL) dropwise. […] The filters are immediately counted in a scintillation counter (Beckman LS 6000SC). Counts per minute are averaged among three trials at each concentration.

COLO 205 = assay: NCI human cancer cell line growth inhibition: COLO 205; format: cell-based; settings: COLO 205, Colon
HCT-116 = assay: NCI human cancer cell line growth inhibition: HCT-116; format: cell-based; settings: HCT-116, Colon
UACC-62 = assay: NCI human cancer cell line growth inhibition: UACC-62; format: cell-based; settings: UACC-62, Melanoma
NCI-H460 = format: cell-based, human; settings: NCI-H460, NSC Lung
U251 = assay: NCI human cancer cell line growth inhibition: U251; format: cell-based; settings: U251, CNS
CCRF-CEM = assay: NCI human cancer cell line growth inhibition: CCRF-CEM; format: cell-based; settings: Leukemia
[1] = 702.1 vs corresponding C26 methyl-containing analogue, 48, 49 among C20 ester analogues

What does the source list for `CCCCCCCC(=O)O[C@H]1/C(=C/C(=O)OC)C[C@H]2C[C@H](CO)OC(=O)C[C@H](O)C[C@@H]3CCCC(CC4CCO[C@H](/C=C/C(C)(C)[C@]1(O)O2)O4)O3` [Formula IIa (702.1)]?
activity in P388 assay compared with other analogues (P388 cell line; [1]): significantly higher activity; EC50 (P388 cell line; Mus musculus, P388, 120 h, 5 days incubation, MTT, read-out: P388 Assay ED50): 17 nM; Difference (GI50 desmethyl vs Bryo-1) (HCC-2998): −2.24; more active than bryostatin-1 by (HCC-2998): more than 2 orders of magnitude; GI50 (HCC-2998; Homo sapiens): 28.8 nM; Difference (GI50 desmethyl vs Bryo-1) (A498): −1.38; GI50 (A498; Homo sapiens): 417 nM; Difference (GI50 desmethyl vs Bryo-1) (HT29): −0.25; GI50 (HT29; Homo sapiens, HT-29): 2820 nM; GI50 (HOP-62): 16200 nM; GI50 (UO-31; Homo sapiens): 14100 nM; Difference (GI50 desmethyl vs Bryo-1) (UO-31): 0.75; GI50 (SNB-75; Homo sapiens): 10700 nM; Difference (GI50 desmethyl vs Bryo-1) (SNB-75): 0.53; GI50 (SF-268; Homo sapiens): 10700 nM; Difference (GI50 desmethyl vs Bryo-1) (SF-268): 0.13; Difference (GI50 desmethyl vs Bryo-1) (786-0): −0.26; GI50 (786-0; Homo sapiens): 3470 nM; GI50 (PC-3; Homo sapiens): 2510 nM; Difference (GI50 desmethyl vs Bryo-1) (PC-3): −0.30; Difference (GI50 desmethyl vs Bryo-1) (T-47D): 0.18; GI50 (T-47D; Homo sapiens, T47D): 9550 nM; GI50 (SK-MEL-5; Homo sapiens): 372 nM; Difference (GI50 desmethyl vs Bryo-1) (SK-MEL-5): −0.73; GI50 (MDA-MB-435; Homo sapiens, MDA-MB-435, Breast): 21.9 nM; more active than bryostatin-1 by (MDA-MB-435; MDA-MB435 (breast)): more than 2 orders of magnitude; Difference (GI50 desmethyl vs Bryo-1) (MDA-MB-435; MDA-MB-435, Breast): −2.56; Ki (PKCδ-C1B): 0.3 ± 0.07 nM; activity in PKCδ-C1B assay compared with other analogues (PKCδ-C1B; [1]): significantly higher activity; Difference (GI50 desmethyl vs Bryo-1) (COLO 205): −1.68; GI50 (COLO 205; Homo sapiens): 83.2 nM; Difference (GI50 desmethyl vs Bryo-1) (HCT-116): −0.02; GI50 (HCT-116; Homo sapiens): 4790 nM; GI50 (UACC-62; Homo sapiens): 7760 nM; Difference (GI50 desmethyl vs Bryo-1) (UACC-62): 0.19; GI50 (NCI-H460; Homo sapiens, read-out: Growth inhibition (GI50)): < 10 nM; Difference (GI50 desmethyl vs Bryo-1) (NCI-H460): −2.40; more active than bryostatin-1 by (NCI-H460): more than 2 orders of magnitude; GI50 (U251; Homo sapiens, U-251): 3980 nM; Difference (GI50 desmethyl vs Bryo-1) (U251): −0.30; GI50 (CCRF-CEM; Homo sapiens): 1550 nM; Difference (GI50 desmethyl vs Bryo-1) (CCRF-CEM): −0.51
